Literature values as cited in US4220642A, “Vasoactive lung polypeptides” (priority 1978, dated 1980).

Experiments:
[1] = tested on: guinea pig trachea, ileum, gallbladder, pulmonary artery, "lung"; details: trachea (F2 α)
[2] = tested on: rat stomach strip, rat colon; details: rat stomach strip and colon

Compound | contraction of guinea pig smooth-muscle organs by prostaglandins [1] | contraction of rat smooth-muscle organs by prostaglandins [2] | contraction of chick rectum by prostaglandins (chick rectum)
CCCCC[C@H](O)/C=C/[C@H]1[C@H](O)CC(=O)[C@@H]1CCCCCCC(=O)O [Prostaglandin E1] | contract | contract | contract
Prostaglandin F2 α | contracts | contracting | contracting
CCCCC[C@H](O)/C=C/[C@H]1[C@H](O)CC(=O)[C@@H]1C/C=C\CCCC(=O)O [Prostaglandin E2] | contract | contract | contract
